Source: patent publication US7544666B2, “NAP derivatives” (Industrial Technology Research Institute, priority 2005, dated 2009)

Experiments:
[1] = Pharmacokinetics after single subcutaneous dose in rats; type: in vivo; conditions: rat, 1 mg/kg subcutaneous
Experimental: A single dosage of NAP and the NAP derivative of BMEC-NAP0706 were subcutaneously administered to rats respectively, and blood samples were obtained at different time intervals. The blood samples were subjected to LC-MS/MS analysis to measure the concentration of NAP and the NAP derivative. A time-plasma concentration relationship was established and pharmacokinetic parameters were calculated. The procedures are described below.
Long Evans rats with body weight between 220 to 240 g were obtained from the National Laboratory Animal Center, Taiwan and caged in the laboratory animal housing in the Industrial Technology Research Institute, Taiwan. The Breeding procedure follows the “Guide for the Care and Use of Laboratory Animals” established by the Chinese Society of Laboratory Animal Sciences. The rats were kept on an alternating 12-hour light and 12-hour dark schedule with sufficient feed and water until they reached the body weight between 280 to 300 g.
Each rat was weighed before the pharmacokinetic examination to estimate its own dosage. The tested drug dissolved in PBS was formulated to achieve the amount of one dosage between 0.28 to 0.32 mL. Each rat was subcutaneously administered with 1 mg/kg of the tested drug. 0.3 mL of blood samples were collected from the saphenous vein in medial thigh of the rat before and 0.25-, 0.5-, 0.75-, 1-, 2-, 4-, 24-hour after administration. Whole blood was centrifuged under 3500 rpm for 10 min and supernatant (serum) was moved to a clean 1.5 mL eppendorf and stored at −80° C.
Sample pretreatment was as follows: The frozen serum was thawed in an ice bath. One hundred μL of the serum was moved to a clean 1.5 mL eppendorf and 10 μL of internal standard material was added. The mixture was added with 200 μL ACN and mixed again. The sample was centrifuged under 14000 rpm at 4° C. for 10 min, and the supernatant was moved to the other clean eppendorf and dried in a vacuum system at 60° C. for 30 min. The dried sample was dissolved in 900 μL ddH2O. The sample was added to a solid phase extraction column previously activated with methanol and ddH2O. After the sample passed through, the extraction column was washed with ddH2O alone and then ddH2O containing 5% ACN and 0.1% TFA. The sample was dissolved from the extraction column with ACN containing 0.1% TFA and dried under a vacuum system at 60° C. for 1 hour. The dried sample was redissolved with 100 μL of ddH2O containing 50% ACN. The sample was analyzed with HPLC-MS/MS system.
The sample analysis was as described below. 20 μL of the sample was poured into the HPLC-MS/MS system. The solvent system was applied in gradient partitioning: 90% A (H2O/ACN=98/2, 0.1% F.A.) and 10% B (H2O/ACN=20/80, 0.1% F.A.) at 0-3 min; 10% A and 90% B at 3-6.5 min; 90% A and 10% B again at 6.5-15 min. The flow rate was 0.2 mL/min. The column was ZORBAX C18, 5 μm, 2.1×50 mm (Agilent) and the detector was ABI 4000 Q Trap. Each sample was analyzed for 15 min. The results were compared with the standard calibration curve to estimate the concentration of each sample. All data was statistically analyzed with Excel or WinNonlin.

[2] = test system: Caco-2 cell monolayer; assay: Permeation to Caco-2 cell monolayer; type: in vitro ADME, human; parameters: unit not given here; conditions: 4-hour incubation, initial concentration 500 μM in upper layer
Experimental: The permeation of NAP and the NAP derivatives was examined using the Caco-2 cell system. Caco-2 cells (1×10^5 cells) were seeded into the polycarbonate film on the upper layer of a 12-well Transwell and incubated at 37° C. for 18 to 26 days. The TEER of the Caco cell monolayer was measured over 350 Ω×cm^2. NAP and the NAP derivatives in the HBSS were added into the upper layer of the Caco-2 cell-seeded Transwell. After 4-hour incubation, the concentration of NAP and the NAP derivatives in the upper and lower layers was measured and analyzed in comparison with the initial concentration (500 μM) by reverse phase HPLC at 210 nm.

[3] = test system: Caco-2 cell; assay: Stability in the Caco-2 cell system; type: in vitro ADME, human; conditions: 4-hour incubation in Caco-2 Transwell; relative to initial conc. = 100.00 (500 μM)
Experimental: (§1) The stability of the NAP derivatives prepared by EXAMPLE 1 was measured with the system of human colon cancer cell, Caco-2 cell. Caco-2 cells (1×10^5 cells) were first seeded into a polycarbonate film on the upper layer of a 12-well Transwell and incubated for 18 to 26 days at 37° C. The TEER of the Caco-2 cell monolayer was measured over 350 Ω×cm^2. The stability of the NAP derivatives in the Hanks' balanced salt solutions (HBSS) was measured by the concentration changes of NAP and the NAP derivatives incubated in the HBSS at 37° C. for 4 hours. The stability of the NAP derivatives in the Caco-2 cell system was measured by the procedure described below. NAP and the NAP derivatives in the HBSS were added into the upper layer of the Caco-2 cell-seeded Transwell. After 4-hour incubation, the concentration of NAP and the NAP derivatives in the upper and lower layers was measured and analyzed in comparison with the initial concentration (500 μM) by reverse HPLC at 210 nm.

[4] = Stability in Hanks' balanced salt solution (HBSS); type: physicochemical; conditions: 37° C., relative to initial conc. in HBSS = 100.00
Experimental: as §1

Row | Conc. at the lover layer [2] | Conc. after 4-hour in Caco-2 cells [3] | Conc. after 4-hour in HBSS [4] | SMILES | also measured
1 | 0.57 | 67.14 | 99.78 | CC[C@H](C)[C@H](NC(=O)[C@H](CO)NC(=O)[C@@H](NC(=O)[C@@H]1CCCN1C(=O)[C@H](C)NC(=O)[C@H](CC(N)=O)NC(=O)OCC1c2ccccc2-c2ccccc21)C(C)C)C(=O)N1CCC[C@H]1C(=O)N[C@@H](CCC(N)=O)C(=O)O [BMEC-NAP0706, Fmoc-NAPVSIPQ-OH] | AUC ([1]; in vivo, sc): 104 ng·h/mL; Cmax ([1]; in vivo, sc): 101 ng/mL; Tmax ([1]; in vivo, sc): 45 min; half-life ([1]; in vivo, sc, read-out: T½ (converted)): 54.6 min; AUC relative to NAP [1]: twice that of NAP; TNAP-max [1]: 0.25 h; maximum plasma concentration relative to NAP [1]: twice that of NAP; time required to reach the highest concentration [1]: 0.25 h
2 | 0.24 | 52.63 | 100.02 | CC[C@H](C)[C@H](NC(=O)[C@H](CO)NC(=O)[C@@H](NC(=O)[C@@H]1CCCN1C(=O)[C@H](C)NC(=O)[C@H](CC(N)=O)NC(=O)OCC(C)C)C(C)C)C(=O)N1CCC[C@H]1C(=O)N[C@@H](CCC(N)=O)C(=O)O [BMEC-NAP0401, iBu-OCO-NAPVSIPQ-OH] | 
3 | 0.35 | 94.72 | 100.72 | CC[C@H](C)[C@@H]1NC(=O)[C@H](CO)NC(=O)[C@H](C(C)C)NC(=O)[C@@H]2CCCN2C(=O)[C@H](C)NC(=O)[C@H](CC(N)=O)NC(=O)[C@H](CCC(N)=O)NC(=O)[C@@H]2CCCN2C1=O [BMEC-NAP0301, Cyclo-(NAPVSIPQ)] | 
4 | 0.49 | 82.71 | 100.22 | CCCCCCOC(=O)N[C@@H](CC(N)=O)C(=O)N[C@@H](C)C(=O)N1CCC[C@H]1C(=O)N[C@H](C(=O)N[C@@H](CO)C(=O)N[C@H](C(=O)N1CCC[C@H]1C(=O)N[C@@H](CCC(N)=O)C(N)=O)[C@@H](C)CC)C(C)C [BMEC-NAP0504, nHex-OCO-NAPVSIPQ-NH2] | 
5 | 0.31 | 92.09 | 98.62 | CC[C@H](C)[C@H](NC(=O)[C@H](CO)NC(=O)[C@@H](NC(=O)[C@@H]1CCCN1C(=O)[C@H](C)NC(=O)[C@H](CC(N)=O)NC(=O)c1cccs1)C(C)C)C(=O)N1CCC[C@H]1C(=O)N[C@@H](CCC(N)=O)C(N)=O [BMEC-NAP0804, 2-Thiophenecarbonyl-NAPVSIPQ-NH2] | 
6 | 0.33 | 92.58 | 99.88 | CC[C@H](C)[C@H](NC(=O)[C@H](CO)NC(=O)[C@@H](NC(=O)[C@@H]1CCCN1C(=O)[C@H](C)NC(=O)[C@H](CC(N)=O)NC(=O)c1ccccc1)C(C)C)C(=O)N1CCC[C@H]1C(=O)N[C@@H](CCC(N)=O)C(N)=O [BMEC-NAP0801, Benzoyl-NAPVSIPQ-NH2] | 
7 | 0.21 | 72.93 | 100.00 | CC[C@H](C)[C@H](NC(=O)[C@H](CO)NC(=O)[C@@H](NC(=O)[C@@H]1CCCN1C(=O)[C@H](C)NC(=O)[C@H](CC(N)=O)NC(=O)OCc1ccccc1)C(C)C)C(=O)N1CCC[C@H]1C(=O)N[C@@H](CCC(N)=O)C(=O)O [BMEC-NAP0705, Cbz-NAPVSIPQ-OH] | 
8 | 0.12 | 94.18 | 100.39 | CCCC(=O)N[C@@H](CC(N)=O)C(=O)N[C@@H](C)C(=O)N1CCC[C@H]1C(=O)N[C@H](C(=O)N[C@@H](CO)C(=O)N[C@H](C(=O)N1CCC[C@H]1C(=O)N[C@@H](CCC(N)=O)C(N)=O)[C@@H](C)CC)C(C)C [BMEC-NAP0201, Butyryl-NAPVSIPQ-NH2] | 
9 | 0.65 | 76.83 | 93.41 | CCCCCCCCOC(=O)N[C@@H](CC(N)=O)C(=O)N[C@@H](C)C(=O)N1CCC[C@H]1C(=O)N[C@H](C(=O)N[C@@H](CO)C(=O)N[C@H](C(=O)N1CCC[C@H]1C(=O)N[C@@H](CCC(N)=O)C(N)=O)[C@@H](C)CC)C(C)C [BMEC-NAP0505, nOct-OCO-NAPVSIPQ-NH2] | 
10 | 0.27 | 61.61 | 96.55 | CC[C@H](C)[C@H](NC(=O)[C@H](CO)NC(=O)[C@@H](NC(=O)[C@@H]1CCCN1C(=O)[C@H](C)NC(=O)[C@H](CC(N)=O)NC(=O)c1cccc2ccccc12)C(C)C)C(=O)N1CCC[C@H]1C(=O)N[C@@H](CCC(N)=O)C(=O)O [BMEC-NAP0702, α-Naphthoyl-NAPVSIPQ-OH] | 
11 | 0.76 | 87.00 | 100.17 | CC[C@H](C)[C@H](NC(=O)[C@H](CO)NC(=O)[C@@H](NC(=O)[C@@H]1CCCN1C(=O)[C@H](C)NC(=O)[C@H](CC(N)=O)NC(=O)OCC(C)C)C(C)C)C(=O)N1CCC[C@H]1C(=O)N[C@@H](CCC(N)=O)C(N)=O [BMEC-NAP0501, iBu-OCO-NAPVSIPQ-NH2] | 
12 | 0.34 | 88.68 | 100.00 | CC[C@H](C)[C@H](NC(=O)[C@H](CO)NC(=O)[C@@H](NC(=O)[C@@H]1CCCN1C(=O)[C@H](C)NC(=O)[C@H](CC(N)=O)NC(=O)c1cccc2ccccc12)C(C)C)C(=O)N1CCC[C@H]1C(=O)N[C@@H](CCC(N)=O)C(N)=O [BMEC-NAP0802, α-Naphthoyl-NAPVSIPQ-NH2] | 
